In the test the test system is NI16 promoter fragment 544 bp. Briefly: GUS florescence assay of promoter::GUS plants after SA application, NI16 544 bp fragment. Format: in vivo, Arabidopsis. Conditions: 5 mM SA spray. The text has this:
A binary promoter::reporter plasmid (pNOV2374) for Arabidopsis transformation was constructed. The regulatory/promoter sequence was fused to the GUS reporter gene (Jefferson et al. (1987) EMBO J 6: 3901-3907) by recombination using […] Technology according to the manufacturer's protocol as described in the Instruction Manual (LifeTechnologies, Rockville, Md.). The construct was then transformed into Agrobacterium tumefaciens strains by electroporation. pNOV2374 is a binary vector with a VS1 origin of replication, a copy of the Agrobacterium virg gene in the backbone, and a Basta® resistance selectable marker cassette between the left and right border sequences of the T-DNA. The Basta® selectable marker cassette comprises the Agrobacterium tumefaciens manopine synthase promoter (AtMas) (Barker et al., Plant Mol. Biol. 2, 335-350 (1983)) operably linked to the gene encoding Basta® resistance (i.e., the “BAR” gene, phosphinothricin acetyl transferase) (White et al., Nucl Acids Res 18: 1062 (1990)) and the 35S terminator. The AtMas promoter, the BAR coding sequence, and the 35S terminator are located at nt 4211 to nt 4679, nt 4680 to nt 5228, and nt 5263 to nt 5488, respectively, of pNOV2374. The vector contains […] recombination components, which were introduced into the binary vector backbone by ligating a blunt-ended cassette containing attR sites, ccdB, and a cholramphenicol resistance marker using the […] Vector Conversion System (LifeTechnologies, Rockville, Md.). The […] cassette was located between nt 126 and 1818 of pNOV2374. The promoter cassettes were inserted through an LR recombination reaction whereby the DNA sequence of pNOV2374 between nt 126 and nt 1818 were removed and replaced with the promoter of interest flanked by att sequences. […] The GIG gene (SEQ ID NO:29) contains the ST-LS1 intron from Solanum tuberosum at nt 385 to nt 576 of GUS (obtained from Dr. Stanton […], Purdue University, and described in Narasimhulu, et al. (1996) Plant Cell 8: 873-886.). […] The treatment was applied as a fine mist to the leaves. Leaf tissue was harvested from plants for the β-glucuronidase (GUS) florescence assay prior to SA application (T0) and at various time intervals after application. For quantitative analysis of promoter activity following induction treatments or in various Arabidopsis tissues and organs, GUS expression is measured florometrically. Tissue samples were harvested and ground in ice cold GUS extraction buffer (50 mM Na2HPO4 pH 7.0, 5 mM DTT, 1 mM Na2EDTA, 0.1% TritonX100, 0.1% sarcosyl). Ground samples were spun in a microfuge at 10,000 rpm for 15 minutes at 4° C. Following centrifugation, the supernatant was removed for the GUS assay and for a protein concentration determination. To measure GUS activity, the plant extract was assayed in GUS assay buffer (50 mM Na2HPO4 pH 7.0, 5 mM DTT, 1 mM Na2EDTA, 0.1% TritonX100, 0.1% sarcosyl, 1 mM 4-Methylumbelliferyl-beta-D-glucuronic acid dihydrate (MUG)), pre-warmed to 37° C. Reactions were incubated, and 100 uL aliquots were removed at 10 minute intervals over 30 minutes to stop the reaction by adding the 100 uL aliquots to tubes containing 900 uL of 2% Na2CO3. The stopped reactions were then read on a Tecan Spectroflourometer at 365 nm excitation and 455 emission wavelengths. Protein concentrations were determined using the BCA assay following the manufacturer's protocol. GUS activity is expressed as pmol MU/mg protein/min.

Regarding `O=C(O)c1ccccc1O` [SA, salicylic acid], the “GUS Activity Induced by SA” value was determined as 52.2 pmol/mg protein/min (2 h), 72.5 pmol/mg protein/min (4 h), 194.9 pmol/mg protein/min (8 h) and 205.4 pmol/mg protein/min (24 h). Further, the “GUS activity Fold-change relative to T0 (uninduced)” value (2 h) came to 4.3 fold, the “GUS activity Fold-change relative to T0 (uninduced)” value (4 h) is 6.0 fold, the “GUS activity Fold-change relative to T0 (uninduced)” value (8 h) stood at 16.2 fold and the “GUS activity Fold-change relative to T0 (uninduced)” value (24 h) is 17.0 fold.
